# Experiment: Compound pharmacokinetic evaluation in SD rats
# Format: in vivo
# Details: male, Sprague-Dawley, rat, plasma
# Protocol: Experimental purpose: compound pharmacokinetics were tested in SD rats
# Sprague Dawley rats (male, 200-300 g, 7-9 weeks old, Shanghai Slack)
# Experimental procedure: the pharmacological characteristics of the compound after intravenous and oral administration were tested in rodents by standard protocol, candidate compounds in the experiment was prepared into clear solutions to be administered to the rats in a single intravenous injection and orally. The intravenous and oral solvents were a certain proportion of an aqueous hydroxypropyl 3-cyclodextrin solution or a physiological saline solution. Whole blood samples within 24 hours were collected, and centrifuged at 3000 g for 15 minutes, the supernatant was separated to obtain plasma samples, 4 times volume of acetonitrile solution containing internal standard was added to precipitate protein, centrifuging was conducted to take the supernatant, equal volume of water was added and centrifuging was conducted to the supernatant to be sampled. The LC-MS/MS analysis method was used to quantitatively analyze the plasma concentration, and the pharmacokinetic parameters such as peak concentration, peak time, clearance rate, half-life, area under the drug concentration-time curve, and bioavailability were calculated.
structure (smiles),measurement,setting,value
Cl.Cn1nc(-c2ccc(OC/C(=C/F)CN)cc2)nc1C(F)F [WX126],Tmax,"oral, read-out: Peak Time Tmax",1.5 h
same,bioavailability,"po, read-out: Bioavailability F",99%
same,AUC,read-out: Concentration Integral AUC,9.31 µM·h
same,Cmax,"single intravenous injection and oral, read-out: Peak Concentration Cmax",2340 nM

# Reference: US11001563B2, “SSAO inhibitor” (SHANDONG DANHONG PHARMACEUTICAL CO., LTD., priority 2017, dated 2021)
